Read-outs that look alike come from different tables or passages of the source.
Tests used:
[1] = molecular target: SARS-CoV-2 RBD peptide (Severe acute respiratory syndrome coronavirus 2, UniProt P0DTC2); test: biochemical; type: binding; conditions: for kon: read-out: RBD kon; for koff: read-out: RBD kdis
[2] = molecular target: T1, ACE2 (Homo sapiens, UniProt Q9BYF1); test: Bio-layer interferometry, binding to immobilized ACE2-His; conditions: for kon: read-out: ACE2 kon; for Kd: 1:1 binding model, KD = kdis/kon; for koff: read-out: ACE2 kdis
T1 construct: purchased Sino Biological
T1 sequence (Q9BYF1 18-805): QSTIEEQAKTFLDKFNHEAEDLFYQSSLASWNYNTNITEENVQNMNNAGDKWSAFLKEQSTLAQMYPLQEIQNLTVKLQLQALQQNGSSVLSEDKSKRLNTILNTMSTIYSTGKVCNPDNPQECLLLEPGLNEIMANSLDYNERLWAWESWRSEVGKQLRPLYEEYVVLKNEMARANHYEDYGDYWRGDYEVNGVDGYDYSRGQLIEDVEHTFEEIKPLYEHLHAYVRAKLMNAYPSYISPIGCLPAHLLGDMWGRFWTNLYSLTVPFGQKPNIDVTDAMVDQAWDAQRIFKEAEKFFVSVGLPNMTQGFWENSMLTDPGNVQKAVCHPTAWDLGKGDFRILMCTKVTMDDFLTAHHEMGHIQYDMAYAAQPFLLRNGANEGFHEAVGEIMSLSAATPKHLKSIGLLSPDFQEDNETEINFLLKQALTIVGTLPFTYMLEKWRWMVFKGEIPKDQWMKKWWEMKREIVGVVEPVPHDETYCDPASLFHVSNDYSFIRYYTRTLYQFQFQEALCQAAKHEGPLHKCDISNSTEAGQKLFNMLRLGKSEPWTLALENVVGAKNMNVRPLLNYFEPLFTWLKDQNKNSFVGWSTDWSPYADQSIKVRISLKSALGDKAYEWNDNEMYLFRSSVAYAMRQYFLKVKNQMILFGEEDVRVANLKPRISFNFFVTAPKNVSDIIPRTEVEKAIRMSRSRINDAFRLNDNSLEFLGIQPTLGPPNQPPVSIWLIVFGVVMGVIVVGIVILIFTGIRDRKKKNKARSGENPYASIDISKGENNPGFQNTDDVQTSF

[3] = molecular target: binding of RBD to ACE2 (Severe acute respiratory syndrome coronavirus 2, UniProt P0DTC2); test: biochemical; design: species or system SARS-CoV-2; human
[4] = association rate, bio-layer interferometry
[5] = dissociation rate, bio-layer interferometry

## C[C@H]1[C@H](N2CCS(=O)(=O)CC2)O[C@@H]2O[C@@]3(C)CC[C@H]4[C@H](C)CC[C@@H]1[C@@]24OO3 [Artemisone]
[1]; KD for RBD
  Kd: 3.6e-07 M
[1]; RBD KD (M)
  Kd: 3.63e-07 M
[1]
  kon: 8.4e+07 M⁻¹ s⁻¹
[2]; [4]
  kon: 971 M⁻¹ s⁻¹
[2]; bio-layer interferometry
  Kd: 681 µM
[2]; [5]
  koff: 0.661 s⁻¹
[3]
  IC50: 63.1 ± 9.63 µM

## C=C[C@H]1C[N@@]2CC[C@H]1C[C@H]2[C@H](O)c1ccnc2ccc(OC)cc12 [Quinine]
[1]
  interaction with the RBD (result in words): No interaction
[2]; [4]
  kon: 877 M⁻¹ s⁻¹
[2]; bio-layer interferometry
  Kd: 9.35 µM
[2]; [5]
  koff: 0.00819 s⁻¹

## C[C@H]1[C@H](N2CCSCC2)O[C@@H]2O[C@@]3(C)CC[C@H]4[C@H](C)CC[C@@H]1[C@@]24OO3 [Artemiside]
[1]
  interaction with the RBD (result in words): No interaction
[2]; [4]
  kon: 4290 M⁻¹ s⁻¹
[2]; bio-layer interferometry
  Kd: 124 µM
[2]; [5]
  koff: 0.533 s⁻¹

## CN(C)c1ccc2nc3ccc(=[N+](C)C)cc-3sc2c1 [Methylene blue]
[2]; bio-layer interferometry
  Kd: 475 µM

## COc1cc(/C=C/C(=O)CC(=O)/C=C/c2ccc(O)c(OC)c2)ccc1O [Curcumin]
[1]
  interaction with the RBD (result in words): No interaction
[2]; [4]
  kon: 600 M⁻¹ s⁻¹
[2]; bio-layer interferometry
  Kd: 20.3 µM
[2]; [5]
  koff: 0.0122 s⁻¹

## CCN(CC)Cc1cc(Nc2ccnc3cc(Cl)ccc23)ccc1O [Amodiaquine]
[2]; bio-layer interferometry
  Kd: 31.3 µM

## C[C@H]1[C@H](OC(=O)CCC(=O)O)O[C@@H]2O[C@@]3(C)CC[C@H]4[C@H](C)CC[C@@H]1[C@@]24OO3 [Artesunate]
[1]
  interaction with the RBD (result in words): No interaction
[2]
  koff: 0.0907 s⁻¹
  kon: 1290 M⁻¹ s⁻¹

## OC(c1cc(C(F)(F)F)nc2c(C(F)(F)F)cccc12)C1CCCCN1 (stereo not shown) [Mefloquine]
[1]; RBD KD (M)
  Kd: 0.00605 M
[1]
  koff: 0.861 s⁻¹
  kon: 142 M⁻¹ s⁻¹
[2]
  koff: 0.0312 s⁻¹
  kon: 716 M⁻¹ s⁻¹

## COc1ccc2nc3cc(Cl)ccc3c(Nc3cc(CN4CCCC4)c(O)c(CN4CCCC4)c3)c2n1 [Pyronaridine]
[1]; KD for RBD
  Kd: 5.7e-05 M
[1]; RBD KD (M)
  Kd: 5.68e-05 M
[1]
  koff: 0.0339 s⁻¹
  kon: 598 M⁻¹ s⁻¹
[2]; [4]
  kon: 584 M⁻¹ s⁻¹
[2]; bio-layer interferometry
  Kd: 51.3 µM
[2]; [5]
  koff: 0.0299 s⁻¹
[3]
  IC50: 49.7 ± 4.19 µM
